Data: ChEMBL document CHEMBL1139705, “Synthesis and in vitro pharmacological studies of new C(4)-modified salvinorin A analogues” (Bioorg Med Chem Lett, 2006)

Experiments:
[1] = biological target: T1, Kappa-type opioid receptor (Homo sapiens, UniProt P41145); test: Displacement of [3H]diprenorphine binding from human kappa opioid receptor expressed in CHO cells; format: cell-based
[2] = biological target: T1, Kappa-type opioid receptor; test: Binding potency at human kappa opioid receptor expressed in CHO cells by [35S]GTPgammaS binding assay; format: functional, cell-based
[3] = biological target: T1, Kappa-type opioid receptor; test: Efficacy at human kappa opioid receptor expressed in CHO cells by [35S]GTP-gamma-S binding assay relative to U50,488H; format: functional, cell-based

T1 sequence (P41145 whole entry): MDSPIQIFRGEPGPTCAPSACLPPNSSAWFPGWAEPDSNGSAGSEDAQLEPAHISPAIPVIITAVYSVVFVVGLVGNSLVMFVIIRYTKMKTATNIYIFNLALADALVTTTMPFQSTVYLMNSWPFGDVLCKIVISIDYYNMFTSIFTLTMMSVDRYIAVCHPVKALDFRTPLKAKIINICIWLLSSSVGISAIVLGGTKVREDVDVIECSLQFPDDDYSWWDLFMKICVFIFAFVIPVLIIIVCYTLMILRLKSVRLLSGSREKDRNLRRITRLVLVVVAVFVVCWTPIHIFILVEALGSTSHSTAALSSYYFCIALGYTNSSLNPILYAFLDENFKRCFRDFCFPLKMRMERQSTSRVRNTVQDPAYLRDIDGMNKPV

| SMILES | Ki [1] [nM] | EC50 [2] [nM] | Efficacy [3] [%] |
| --- | --- | --- | --- |
| C=CCOC[C@@H]1C[C@H](OC(C)=O)C(=O)[C@H]2[C@@]1(C)CC[C@H]1C(=O)O[C@H](c3ccoc3)C[C@]21C | > 1000 | – | – |
| CC(=O)O[C@H]1C[C@@H](COC(=O)c2ccc(C)cc2)[C@]2(C)CC[C@H]3C(=O)O[C@H](c4ccoc4)C[C@]3(C)[C@H]2C1=O | > 1000 | – | – |
| COCCOCC(=O)OC[C@@H]1C[C@H](OC(C)=O)C(=O)[C@H]2[C@@]1(C)CC[C@H]1C(=O)O[C@H](c3ccoc3)C[C@]21C | 613 | 210 | 98 |
| CC(=O)O[C@H]1C[C@@H](COC(=O)C(C)N(C)C(=O)OCC2c3ccccc3-c3ccccc32)[C@]2(C)CC[C@H]3C(=O)O[C@H](c4ccoc4)C[C@]3(C)[C@H]2C1=O (stereo not given in full) | > 1000 | – | – |
| CC(=O)O[C@H]1C[C@@H](C(=O)O)[C@]2(C)CC[C@H]3C(=O)O[C@H](c4ccoc4)C[C@]3(C)[C@H]2C1=O | > 1000 | – | – |
| CC(=O)O[C@H]1C[C@@H](COC(=O)C2CC2)[C@]2(C)CC[C@H]3C(=O)O[C@H](c4ccoc4)C[C@]3(C)[C@H]2C1=O | 221 | 358 | 92 |
| CC(=O)O[C@H]1C[C@@H](COC(=O)c2ccc(F)cc2)[C@]2(C)CC[C@H]3C(=O)O[C@H](c4ccoc4)C[C@]3(C)[C@H]2C1=O | > 1000 | – | – |
| C#CCC(=O)OC[C@@H]1C[C@H](OC(C)=O)C(=O)[C@H]2[C@@]1(C)CC[C@H]1C(=O)O[C@H](c3ccoc3)C[C@]21C | > 1000 | – | – |
| CC(=O)O[C@H]1C[C@@H](COCc2ccccc2)[C@]2(C)CC[C@H]3C(=O)O[C@H](c4ccoc4)C[C@]3(C)[C@H]2C1=O | > 1000 | – | – |
| CC(=O)O[C@H]1C[C@@H](c2nnnn2CCC#N)[C@]2(C)CC[C@H]3C(=O)O[C@H](c4ccoc4)C[C@]3(C)[C@H]2C1=O | > 1000 | – | – |
| CC(=O)O[C@H]1C[C@@H](COC(=O)C(C)NC(=O)OCC2c3ccccc3-c3ccccc32)[C@]2(C)CC[C@H]3C(=O)O[C@H](c4ccoc4)C[C@]3(C)[C@H]2C1=O (stereo not given in full) | > 1000 | – | – |
| CC(=O)O[C@H]1C[C@@H](C=O)[C@]2(C)CC[C@H]3C(=O)O[C@H](c4ccoc4)C[C@]3(C)[C@H]2C1=O | > 1000 | – | – |
| CC(=O)OC[C@@H]1C[C@H](OC(C)=O)C(=O)[C@H]2[C@@]1(C)CC[C@H]1C(=O)O[C@H](c3ccoc3)C[C@]21C | > 1000 | – | – |
| CC(=O)O[C@H]1C[C@@H](COC(=O)c2cccc(F)c2)[C@]2(C)CC[C@H]3C(=O)O[C@H](c4ccoc4)C[C@]3(C)[C@H]2C1=O | > 1000 | – | – |
| COC[C@@H]1C[C@H](OC(C)=O)C(=O)[C@H]2[C@@]1(C)CC[C@H]1C(=O)O[C@H](c3ccoc3)C[C@]21C | > 1000 | – | – |
| COC(=O)[C@@H]1C[C@H](OC(C)=O)C(=O)[C@H]2[C@@]1(C)CC[C@H]1C(=O)O[C@H](c3ccoc3)C[C@]21C | – | – | 106 |
| CC(=O)O[C@H]1C[C@@H](COC(=O)Cc2ccccc2)[C@]2(C)CC[C@H]3C(=O)O[C@H](c4ccoc4)C[C@]3(C)[C@H]2C1=O | > 1000 | – | – |
| CC(=O)O[C@H]1C[C@@H](COC(=O)CNC(=O)OCC2c3ccccc3-c3ccccc32)[C@]2(C)CC[C@H]3C(=O)O[C@H](c4ccoc4)C[C@]3(C)[C@H]2C1=O | > 1000 | – | – |
| CC(=O)O[C@H]1C[C@@H](COC(=O)C(NC(=O)OCC2c3ccccc3-c3ccccc32)c2ccccc2)[C@]2(C)CC[C@H]3C(=O)O[C@H](c4ccoc4)C[C@]3(C)[C@H]2C1=O (stereo not given in full) | > 1000 | – | – |
| CC(=O)O[C@H]1C[C@@H](CO)[C@]2(C)CC[C@H]3C(=O)O[C@H](c4ccoc4)C[C@]3(C)[C@H]2C1=O | 43.4 | 20.7 | 107 |
| CC(=O)O[C@H]1C[C@@H](COC(=O)c2ccc(Br)cc2)[C@]2(C)CC[C@H]3C(=O)O[C@H](c4ccoc4)C[C@]3(C)[C@H]2C1=O | > 1000 | – | – |
| C/C=C/C(=O)OC[C@@H]1C[C@H](OC(C)=O)C(=O)[C@H]2[C@@]1(C)CC[C@H]1C(=O)O[C@H](c3ccoc3)C[C@]21C | > 1000 | – | – |
| CCOC[C@@H]1C[C@H](OC(C)=O)C(=O)[C@H]2[C@@]1(C)CC[C@H]1C(=O)O[C@H](c3ccoc3)C[C@]21C | > 1000 | – | – |
| COCCOCC(=O)OC[C@@H]1C[C@H](OC(C)=O)C(=O)[C@H]2[C@@]1(C)CC[C@@H]1C(=O)O[C@H](c3ccoc3)C[C@]21C | > 1000 | – | – |
